# Assay results as given in PubChem BioAssay (NCI).
#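 The compound was tested at five concentrations on cells cultured in 96-well plates, with a 48-hour exposure period. TGI: total growth inhibition.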
# Key:
# Assay in all cases: NCI anticancer screen, dose series, 48 h
# [1] = tested on: COLO 205 colon
# [2] = tested on: EKVX NSCLC
# [3] = tested on: HCC-2998 colon
# [4] = tested on: HCT-15 colon
# [5] = tested on: HL-60(TB) leukemia
# [6] = tested on: HT29 colon
# [7] = tested on: IGROV1 ovarian
# [8] = tested on: KM12 colon
# [9] = tested on: M14 melanoma
# [10] = tested on: MALME-3M melanoma
# [11] = tested on: MCF7 breast
# [12] = tested on: NCI-H460 lung
# [13] = tested on: NCI/ADR-RES ovarian
# [14] = tested on: OVCAR-3 ovarian
# [15] = tested on: RPMI-8226 leukemia
# [16] = tested on: SF-268 CNS
# [17] = tested on: SK-MEL-28 melanoma
# [18] = tested on: SK-MEL-5 melanoma
# [19] = tested on: UACC-62 melanoma
# [20] = tested on: RXF 393 renal
Compound,TGI [1] [µM],TGI [2] [µM],TGI [3] [µM],TGI [4] [µM],TGI [5] [µM],TGI [6] [µM],TGI [7] [µM],TGI [8] [µM],TGI [9] [µM],TGI [10] [µM],TGI [11] [µM],TGI [12] [µM],TGI [13] [µM],TGI [14] [µM],TGI [15] [µM],TGI [16] [µM],TGI [17] [µM],TGI [18] [µM],TGI [19] [µM],TGI [20] [µM]
Cc1cc(C)nc(NS(=O)(=O)c2ccc(Nc3c4ccccc4nc4c(C(=O)NCCCN(CCO)CCO)cccc34)cc2)n1,34.3,> 100,33.6,> 100,38.6,> 100,> 100,30.7,99.2,33.6,> 100,44,> 100,> 100,79.6,> 100,31.2,34.8,60.4,
CN1C2CC(=O)CC1[C@H](O)[C@@H]2O,> 100,> 100,> 100,> 100,> 100,> 100,,> 100,> 100,> 100,> 100,> 100,> 100,> 100,> 100,> 100,> 100,,,> 100
Cc1[nH]c(=O)nc(N/N=C/c2ccc(Cl)cc2)c1C(=O)NC(C)(CO)CO,> 100,> 100,> 100,> 100,> 100,> 100,> 100,> 100,> 100,> 100,> 100,> 100,> 100,> 100,> 100,> 100,> 100,> 100,> 100,> 100
CCOC(=O)c1csc(NC(=O)CCN2CCCCC2)n1,> 100,> 100,> 100,> 100,> 100,> 100,> 100,,> 100,> 100,> 100,> 100,> 100,> 100,> 100,,> 100,> 100,> 100,> 100
COc1cc(C2C(Cl)C(=O)N2NC(=O)c2ccccc2O)ccc1O (stereo not drawn),,,> 100,> 100,> 100,> 100,> 100,> 100,> 100,> 100,,> 100,,> 100,,> 100,> 100,> 100,> 100,> 100
CC1(C23CC4CC(CC(C4)C2)C3)n2c(=O)n(-c3ccccc3)c(=O)n2C1(C)C12CC3CC(CC(C3)C1)C2 (stereo not drawn),> 100,> 100,,> 100,> 100,> 100,> 100,> 100,> 100,,> 100,> 100,> 100,> 100,> 100,> 100,> 100,> 100,> 100,
CCC1=CC2CN3CCc4c([nH]c5ccccc45)C(C(=O)OC)(C2)C13 (stereo not drawn),80.6,78.2,> 92.6,90.8,125,60.4,105,41.8,,92.8,95.4,102,110,107,137,101,98.4,79.4,64,78.7
CCCCC(C)C1CCC2(C)C=CC(=O)C(C)=C2C1O (stereo not drawn),> 100,> 100,> 100,> 100,> 100,> 100,> 100,> 100,,,> 100,> 100,> 100,> 100,> 100,> 100,> 100,> 100,> 100,> 100
